{"source": "paper PMC6748665", "about": "(Journal of Medicinal Chemistry, 2019)", "target": "T1, MtbTrmD (Mycobacterium tuberculosis, UniProt P9WFY7)", "T1 sequence (P9WFY7 1-230)": "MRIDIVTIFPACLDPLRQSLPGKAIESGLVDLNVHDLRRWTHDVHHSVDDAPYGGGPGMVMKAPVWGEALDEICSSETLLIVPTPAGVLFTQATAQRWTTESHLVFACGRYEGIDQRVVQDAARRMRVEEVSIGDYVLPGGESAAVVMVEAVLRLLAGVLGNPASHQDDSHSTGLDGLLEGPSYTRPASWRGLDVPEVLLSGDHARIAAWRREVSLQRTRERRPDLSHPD", "test": "Surface plasmon resonance", "assay_type": "binding", "settings": "SPR", "data": [{"molecule": "CCCCCCCCNCc1ccc(CNC(=O)c2csc3nc[nH]c(=O)c23)cc1", "note": "[Compound 15, N-(4-((Octylamino)methyl)benzyl)-4-oxo-3,4-dihydrothieno[2,3-d]pyrimidine-5-carboxamide]", "values": [{"measurement": "lower affinity for MtbTrmD compared to the PaTrmD binding affinity", "value": "over 100 fold"}]}]}
